Test system: RAD51 NPFs
Assay: cryo-electron micrographs, bundling of RAD51 NPFs on uncapped DNA
Set-up: species or system human
Details: 1:0.5 molar ratio of TR2 peptide; uncapped ss- and dsDNA; two independent repeats
Description: To understand the structural basis for the association of the BRCA2 C-terminus with the RAD51 nucleoprotein filament, we sought to determine the structure of a RAD51-DNA-TR2 filament by high-resolution cryo-electron microscopy (cryoEM). […] Individual filaments within a bundle appeared to be in translational register relative to each other as it was possible to obtain well-resolved 2D classes of filament pairs (Supplementary fig. 5A, Supplementary Table 1). Filament aggregation induced by TR2 complicated picking of individual filament particles and prevented structural determination by cryoEM. We therefore sought to develop a method to prepare RAD51 NPFs in the presence of TR2 peptide without causing filament bundling. We reasoned that bundling might be alleviated by capping the DNA substrate with a bulky tag, to prevent filament aggregation by steric interference. We therefore prepared ss- and dsDNA substrates with a biotin tag at either one end or both ends, that could be bound by monomeric streptavidin (mSA) (Supplementary Fig. 5B, Supplementary Table 1).
Fig. 2 BRCA2 TR2 induces bundling of RAD51 nucleoprotein filaments. A Cryo-electron micrographs of RAD51 NPFs formed on ssDNA and dsDNA in the presence of 1:0.5 molar ratio of TR2 peptide. Extensive NPF aggregation into bundles of aligned filaments is clearly visible (examples marked with dashed white boxes). Two independent repeats. […]

DDQKNCKKRRALDFLSRLPLPPPVSPICTFVSPAAQKAFQPPRSCGTKY [TR2, BRCA2 TR2 peptide spanning amino acids 3260 to 3308]
bundling of RAD51 NPFs: extensive bundling of RAD51 NPFs with both ss- and dsDNA
